Results as given in patent publication US6949571B2, “1,2-dihydropyridine compounds, process for preparation of the same and use thereof” (Eisai Co., Ltd., priority 2000, dated 2005).
pIC50: −log10 of the molar value. Like-named read-outs stand apart in the source and are kept apart here.

Test system: AMPA receptor
[1] = Table 1, primary culture of rat embryo cerebral cortex nerve cells, 2 μM AMPA, 1 μM MK-801
[2] = Table 3, primary culture of rat embryo cerebral cortex nerve cells, 2 μM AMPA, 1 μM MK-801
[3] = Table 2, suppression of AMPA-induced calcium influx into nerve cells
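Note: primary rat embryonic cortical neurons grown on an astrocyte layer in 96-well plates, used after at least 8 to 10 days in culture, Fura2-AM fluorescence ratio at 340/380 nm excitation.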

Method: Cerebral cortex was cut out from the brain of rat of gestational 18 days and treated with trypsin and DNase to disperse the cells. The cells were flown by MEM containing 10% of serum, sown in a culture bottle and astrocytes were proliferated. The astrocytes were re-dispersed by trypsin and sown in a 96-well plate. After incubation for one week, it was confirmed that the astrocytes covered all over the bottom and then the nerve cells of cerebral cortex which was dispersed by the above method were sown thereupon. After incubation for 24 hours, the medium was changed, the incubation was carried out for one week and, after that, the medium was changed to that containing 1 μM of MK-801. Nerve cells which were incubated for not shorter than 8 to 10 days were used.
Calcium influx into the cells was measured using Fura2-AM which was a calcium-sensitive fluorescent dye. It was treated in a medium containing Fura2-AM for 1 hour, incorporated into the cells, exchanged to a Tyrode solution containing 1 μM MK-801 and stimulation was carried out using 2 μM AMPA. Change in the amount of calcium flown into the cells were measured as the change in the fluorescent intensity at the exciting wave length of 340/380 nm.

pIC50 [3]	SMILES	pIC50 [1]	also measured
	CCN(CC)Cc1sccc1-c1cc(-c2ccccc2C#N)c(=O)n(-c2ccccc2)c1 [Example 29, 3-(2-Cyanophenyl)-5-(2-diethylaminomethylthiophen-3-yl)-1-phenyl-1,2-dihydropyridin-2-one]	7.00	
	COC(=O)c1cccc(-c2cc(-c3ccccc3C#N)c(=O)n(-c3ccccc3)c2)n1 [Example 303, 3-(2-Cyanophenyl)-5-(2-methoxycarbonylpyridin-6-yl)-1-phenyl-1,2-dihydropyridin-2-one]		pIC50 [2]: 6.05
	CCSc1ccc(-n2cc(-c3ccccn3)cc(-c3ccccc3C#N)c2=O)cn1 [Example 116, 3-(2-Cyanophenyl)-5-(2-pyridyl)-1-(2-ethylthiopyridin-5-yl)-1,2-dihydropyridin-2-one]	6.70	
	N#Cc1ccccc1-c1cc(C(=O)c2ccccn2)cn(-c2ccccc2)c1=O [Example 394, 3-(2-Cyanophenyl)-5-(2-pyridinecarbonyl)-1-phenyl-1,2-dihydropyridin-2-one]		pIC50 [2]: 5.85
	N#Cc1ccccc1-c1cc(-c2ccccc2F)cn(-c2ccccc2)c1=O [Example 45, 3-(2-Cyanophenyl)-5-(2-fluorophenyl)-1-phenyl-1,2-dihydropyridin-2-one]	6.70	
5.18	NC(=O)c1ccccc1-c1cc(-c2ccccn2)cn(-c2ccccc2)c1=O [Example 140, 3-(2-Aminocarbonylphenyl)-5-(2-pyridyl)-1-phenyl-1,2-dihydropyridin-2-one]		
	COc1ccccc1-c1cc(-c2ccccn2)cn(-c2ccccc2)c1=O [Example 55, 3-(2-Methoxyphenyl)-5-(2-pyridyl)-1-phenyl-1,2-dihydropyridin-2-one]	6.10	
	COc1ccccc1-c1cc(-c2ccccc2C#N)c(=O)n(-c2cccnc2)c1 [Example 52, 3-(2-Cyanophenyl)-5-(2-methoxyphenyl)-1-(3-pyridyl)-1,2-dihydropyridin-2-one]	5.96	
6.30	O=c1c(-c2nccs2)cc(-c2ccccn2)cn1-c1ccccc1 [Example 255, 1-Phenyl-5-(2-pyridyl)-3-(2-thiazoyl)-1,2-dihydropyridin-2-one]		
6.05	N#Cc1ccccc1-c1cc(-c2ccccn2)cn(-c2cccc(CN3CCCC3)c2)c1=O [Example 250, 3-(2-Cyanophenyl)-1-[3-(pyrrolidinomethyl)phenyl]-5-(2-pyridyl)-1,2-dihydropyridin-2-one]		
	COc1cccc(-n2cc(-c3ccccn3)cc(-c3cccnc3F)c2=O)c1 [Example 80, 3-(2-Fluoro-3-pyridyl)-5-(2-pyridyl)-1-(3-methoxyphenyl)-1,2-dihydropyridin-2-one]	6.52	
	N#Cc1ccccc1-c1cc(-c2nc3ccccc3n2C2CCN(Cc3ccccc3)CC2)cn(-c2ccccc2)c1=O [Example 365, 3-(2-Cyanophenyl)-5-[1-(1-benzylpiperidin-4-yl)benzimidazol-2-yl]-1-phenyl-1,2-dihydropyridin-2-one]		pIC50 [2]: 5.57
	COc1ncccc1-c1cc(-c2ccccn2)cn(-c2ccccc2)c1=O [Example 81, 3-(2-Methoxy-3-pyridyl)-5-(2-pyridyl)-1-phenyl-1,2-dihydropyridin-2-one]	5.57	
5.15	N#Cc1ccccc1-c1cc(C2=COCCO2)cn(-c2ccccc2)c1=O [Example 209, 3-(2-Cyanophenyl)-5-(5.6-dihydro-1.4-dioxin-2-yl)-1-phenyl-1,2-dihydropyridin-2-one]		
	COc1ccc(-c2cc(-c3ccccc3C#N)c(=O)n(-c3ccccc3)c2)cc1OC [Example 43, 3-(2-Cyanophenyl)-5-(3,4-dimethoxyphenyl)-1-phenyl-1,2-dihydropyridin-2-one]	6.30	
	N#Cc1ccccc1-c1cc(-c2ccsc2C=O)cn(-c2ccccc2)c1=O [Example 28, 3-(2-Cyanophenyl)-5-(2-formylthiophen-3-yl)-1-phenyl-1,2-dihydropyridin-2-one]	6.70	
	CC1=NN=C(c2ccc(N)cc2)c2cc3c(cc2C1)OCO3 [GYKI 52466, reference compound]		pIC50 (control compound, same test, 2 μM AMPA): 5.04
	N#Cc1ccccc1-c1cc(-c2ccccn2)cn(-c2cccc(C=O)c2)c1=O [Example 20, 3-(2-Cyanophenyl)-5-(2-pyridyl)-1-(3-formylphenyl)-1,2-dihydropyridin-2-one]	7.40	
	O=c1c(-c2nc3cccc4c3n2CCC4)cc(-c2ccccn2)cn1-c1ccccc1 [Example 359, 3-(5,6-Dihydro-4H-imidazo[4,5,1-i,j]quinolin-2-yl)-5-(2-pyridyl)-1-phenyl-1,2-dihydropyridin-2-one]		pIC50 [2]: 5.64
	N#Cc1ccccc1-c1cc(-c2ccccn2)cn(-c2cccc(Cl)c2)c1=O [Example 102, 3-(2-Cyanophenyl)-5-(2-pyridyl)-1-(3-chlorophenyl)-1,2-dihydropyridin-2-one]	7.70	

pIC50 [3]	SMILES	pIC50 [1]	also measured
5.80	O=c1c(-c2ccccc2CO)cc(-c2ccccn2)cn1-c1ccccc1 [Example 147, 3-(2-Hydroxymethylphenyl)-5-(2-pyridyl)-1-phenyl-1,2-dihydropyridin-2-one]		
5.74	CS(=O)(=O)Nc1ccc(-c2cc(-c3ccccn3)cn(-c3ccccc3)c2=O)cc1 [Example 227, 3-[4-(Methanesulfonylamino)phenyl]-1-phenyl-5-(2-pyridyl)-1,2-dihydropyridin-2-one]		
	CC(=O)OCc1cccc(-n2cc(-c3ccccn3)cc(-c3ccccc3C#N)c2=O)c1 [Example 25, 3-(2-Cyanophenyl)-5-(2-pyridyl)-1-(3-acetoxymethylphenyl)-1,2-dihydropyridin-2-one]	7.52	
6.30	CC(C)N(CCOc1cccc(-n2cc(-c3ccccn3)cc(-c3ccccc3C#N)c2=O)c1)C(C)C [Example 242, 3-(2-Cyanophenyl)-1-[3-(diisopropylaminoethoxy)phenyl]-5-(2-pyridyl)-1,2-dihydropyridin-2-one]		
5.40	CC(=O)Nc1ccccc1-c1cc(-c2ccccn2)cn(-c2ccccc2)c1=O [Example 230, 3-[2-(Acetylamino)phenyl]-1-phenyl-5-(2-pyridyl)-1,2-dihydropyridin-2-one]		
	N#Cc1ccccc1-c1cc(-c2ccccc2)c(=O)n(-c2ccccn2)c1 [Example 38, 3-Phenyl-5-(2-cyanophenyl)-1-(2-pyridyl)-1,2-dihydropyridin-2-one]	5.20	
	CS(=O)(=O)Nc1ccccc1-c1cc(-c2ccccc2C#N)c(=O)n(-c2ccccc2)c1 [Example 3, 3-(2-Cyanophenyl)-5-(2-methylsulfonylaminophenyl)-1-phenyl-1,2-dihydropyridin-2-one]	6.52	
	N#Cc1ccccc1-c1cc(-c2ccccn2)cn(-c2ccc(C(F)(F)F)cc2)c1=O [Example 108, 3-(2-Cyanophenyl)-5-(2-pyridyl)-1-(4-trifluoromethylphenyl)-1,2-dihydropyridin-2-one]	7.52	
5.02	CS(=O)(=O)Nc1ccccc1-c1cc(-c2ccccn2)cn(-c2ccccc2)c1=O [Example 226, 3-[2-(Methylsulfonylamino)phenyl]-1-phenyl-5-(2-pyridyl)-1,2-dihydropyridin-2-one]		
5.14	O=c1c(-c2ccc(N3CCCC3)nc2)cc(-c2ccccn2)cn1-c1ccccc1 [Example 285, 3-(2-Pyrrolidinopyridin-5-yl)-5-(2-pyridyl)-1-phenyl-1,2-dihydropyridin-2-one]		
	CCc1ccc(-n2cc(-c3ccccn3)cc(-c3ccccc3C#N)c2=O)cn1 [Example 124, 3-(2-Cyanophenyl)-5-(2-pyridyl)-1-(2-ethylpyridine-5-yl)-1,2-dihydropyridin-2-one]	6.15	
6.52	N#Cc1ccccc1-c1cc(-c2ncccc2O)cn(-c2ccccc2)c1=O [Example 198, 3-(2-Cyanophenyl)-5-(3-hydroxypyridin-2-yl)-1-phenyl-1,2-dihydropyridin-2-one]		
	N#Cc1ccccc1-c1cc(-c2ccccn2)cn(CC2CCCC2)c1=O [Example 317, 3-(2-Cyanophenyl)-1-cyclopentylmethyl-5-(2-pyridyl)-1,2-dihydropyridin-2-one]		pIC50 [2]: 6.22
	O=c1c(-c2ccccc2)cc(-c2ccccn2)cn1-c1cccc(F)c1 [Example 97, 3-Phenyl-5-(2-pyridyl)-1-(3-fluorophenyl)-1,2-dihydropyridin-2-one]	6.40	
	COc1ccccc1-c1cc(-c2ccccn2)cn(-c2cccnc2)c1=O [Example 129, 3-(2-Methoxyphenyl)-5-(2-pyridyl)-1-(3-pyridyl)-1,2-dihydropyridin-2-one]	5.59	
	N#Cc1ccccc1-c1cc(-c2ccccn2)cn(-c2cccc(O)c2)c1=O [Example 315, 3-(2-Cyanophenyl)-1-(3-hydroxyphenyl)-5-(2-pyridyl)-1,2-dihydropyridin-2-one]		pIC50 [2]: 7.10
	N#Cc1ccccc1-c1cc(-c2ccccn2)cn(-c2ccc(Cl)nc2)c1=O [Example 120, 3-(2-Cyanophenyl)-5-(2-pyridyl)-1-(2-chloropyridin-5-yl)-1,2-dihydropyridin-2-one]	6.70	
	O=c1c(-c2cccnc2)cc(-c2ccccn2)cn1-c1ccccc1 [Example 67, 3-(3-Pyridyl)-5-(2-pyridyl)-1-phenyl-1,2-dihydropyridin-2-one]	5.19	
8.00	CN(C)CCOc1cccc(-n2cc(-c3ccccn3)cc(-c3ccccc3Cl)c2=O)c1 [Example 144, 3-(2-Chlorophenyl)-5-(2-pyridyl)-1-(3-dimethylaminoethoxyphenyl)-1,2-dihydropyridin-2-one]		

SMILES	pIC50 [3]	pIC50 [1]	also measured
N#Cc1ccccc1-c1cc(-c2cccnn2)cn(-c2ccccc2)c1=O [Example 204, 3-(2-Cyanophenyl)-1-phenyl-5-(3-pyridazyl)-1,2-dihydropyridin-2-one]	5.80		
N#Cc1ccccc1-c1cc(-c2cccc(Br)n2)cn(-c2ccccc2)c1=O [Example 300, 5-(2-Bromopyridin-6-yl)-3-(2-cyanophenyl)-1-phenyl-1,2-dihydropyridin-2-one]	6.52		
N#CCc1ccccc1-n1cc(-c2ccccn2)cc(-c2ccccc2C#N)c1=O [Example 151, 3-(2-Cyanophenyl)-5-(2-pyridyl)-1-(2-cyanomethylphenyl)-1,2-dihydropyridin-2-one]	6.52		
